Entries after “also recorded” stand apart in the source; their conditions may differ.
System: Sprague-Dawley rats (preference for drug-paired white chamber)
Assay: Conditioned Place Preference (CPP) conditioning and addiction with amphetamine, exploration on day 4 of withdrawal
Assay type: in vivo, male Sprague-Dawley rats
Text: A three (3) chambered CPP apparatus, measuring 75 cm×30 cm×25 cm, was employed. The single black, white and grey chambers could each be isolated from the other by a sliding door on either side of the central grey chamber. […] The floor of the white chamber was covered with shiny transparent Perspex; while the floor of the black chamber was covered with wire mesh and sawdust, creating two contrasting chambers with distinct visual and tactile cues, representing a biased paradigm. The apparatus was thoroughly cleaned with a dilute solution of disinfectant upon completion of exploration by each rat.
Twenty four (24), three (3) month old male Sprague-Dawley rats, weighing approximately 250-350 g each, were obtained from the University of the West Indies Faculty of Medical Sciences Animal House following ethical approval of the protocol by the FMS/UHWI/UWI Ethics Committee, on the Mona Campus of the University of the West Indies. Animals were housed in pairs, in a normal twelve (12) hour light: dark cycle and fed food and water ad libitum.
Phase 1: Pre-conditioning, selection and first group assignments: Animals were selected for inclusion in the experiment via pre-conditioning. They were allowed an initial twenty (20) minute exploration of the CPP apparatus, and scores of chamber entries and time counted from a video recording. Animals displaying ≥80% preference for the dark CPP chamber during pre-conditioning were selected and randomly assigned to one of two treatment groups, AMP or SAL, each containing twelve animals.
Phase 2: Conditioning: During the conditioning phase, rats assigned to the amphetamine treatment group (Group AMP) received 1 ml of amphetamine hydrochloride (sigma) dissolved in 0.9% saline, providing 5 mg/kg intraperitoneally (i.p.). Rats in Group SAL were given 1 ml of physiological saline intraperitoneally.
Conditioning consisted of 8 days of daily, group-assigned intraperitoneal injection and then immediate, individual confinement to the white, ‘aversive’ chamber for thirty (30) minutes. […]
Phase 3: Amphetamine addiction and drug withdrawal: On day 9, the addiction phase ensued, with a six (6) day period of exposure to a daily increasing amphetamine dose for the drug treated (Group AMP) animals. […] During this period, the number of entries made into each chamber and the time spent in each chamber were recorded for all rats via scores from video recordings of exploration.
All the resulting data were analyzed, using the SPSS 19 software. The mean percent time and entries into the white CPP chamber by each animal were scored from video recordings. […]

[1] = Groups AMP-S and AMP-N, amphetamine 5-7 mg/kg i.p., t-test, p<0.001, hydrochloride

CC(N)Cc1ccccc1.Cl (stereo not shown) [Amphetamine, amphetamine hydrochloride]
percent time in the drug-paired white chamber during withdrawal versus saline treated groups (AMP-S and AMP-N combined n=12 versus SAL-S and SAL-N, p<0.01): significantly increased
percent entries into the drug-paired white chamber during withdrawal versus saline treated groups (AMP-S and AMP-N versus SAL-S and SAL-N, p<0.01): significantly higher
percent entries into the drug-paired white chamber during withdrawal versus pre-conditioning [1]: significantly more entries; also recorded: significantly increased
percent time in the drug-paired white chamber during withdrawal versus pre-conditioning [1]: significantly more time; also recorded: significantly increased

From patent US20220339204A1, “METHOD AND COMPOSITION FOR AM[…] SEEKING BEHAVIOR” (priority 2018, published 2022)
